Tested on: Human PBMCs (DCs, B-cells, T-cells)
Assay: Transduction specificity in GM-CSF/IL-4 treated human PBMC culture
Conditions: all cell populations

Cc1ccnc2c1NC(=O)c1cccnc1N2C1CC1 [Nevirapine]
effect of RT inhibitor on transduction: completely ablated
